Data taken from patent US8859584B2, “TRPV1 antagonists” (AbbVie Inc., priority 2011, dated 2014).

Legend:
human TRPV1 [1] = molecular target: T1, human TRPV1 (Homo sapiens, UniProt Q8NER1); test: Acid Activation Assay (pH 5.0, FLIPR intracellular Ca2+, recombinant HEK293 cells); format: cell-based; details: percentage of maximal pH 5.0-induced response remaining; HEK293 hTRPV1; max concentration 37.5 μM
T1 construct: expressed in transfected cells
Protocol: (ii) Acid Activation Assay
Dulbecco's modified Eagle's medium (DMEM) with 4.5 mg/mL D-glucose, fetal bovine serum, L-glutamine, and 2-morpholinoethanesulfonic acid (MES) were purchased from Sigma-Aldrich Co. (St. Louis, Mo.). […] The FLIPR® Calcium 4 assay kit was purchased from Molecular Devices (Sunnyvale, Calif.).
(§1) Expression plasmids encoding the hTRPV1 cDNA were transfected into HEK293 cells using Lipofectamine®. Forty-eight hours after transfection, the neomycin-resistant cells were selected with growth medium containing 800 μg/mL Geneticin (Life Technologies, formerly Gibco BRL). Surviving individual colonies were isolated and screened for TRPV1 activity. Cells expressing recombinant TRPV1 were maintained at 37° C. in DMEM containing 4 mM L-glutamine, 300 μg/mL G418 (Calbiochem) and 10% fetal bovine serum under a humidified 5% CO2 atmosphere.
The functional activity of compounds at the TRPV1 receptor was determined by measurement of intracellular Ca^2+ levels ([Ca^2+]i) using the Fluorescence Imaging Plate Reader (FLIPR)TETRA®. […] Compound stocks, 10 mM, were prepared in DMSO, and diluted serially across a 384-well plate using a Bravo BenchCel workstation (Agilent Technologies, Santa Clara, Calif.). On the day prior to the experiment, the recombinant HEK293 cells expressing human TRPV1 (hTRPV1) were removed from tissue culture flasks and plated in growth medium into black-walled clear-bottom 384-well Biocoat™ poly-D-lysine assay plates (BD Biosciences, Bedford, Mass.) using a Multidrop® dispenser (ThermoScientific, Waltham, Mass.). […] The plated cells were incubated for 90-120 min in the dark at 25° C. The test compounds dissolved in DMSO were then added to the plates using an Agilent Bravo workstation (Agilent Technologies Inc., Santa Clara, Calif.). Three minutes later, a pH 5.0 solution was added to each well. Reagents were delivered at a rate of 40 μL/sec, and the final assay volume was 80 μL. Acidic pH solutions were prepared by titration of DPBS/MES with 1 N HCl. The intensity of the fluorescence was captured and digitally transferred to an interfaced PC. The maximum peak measured for the concentration range tested was used to calculate the corresponding peak increase in fluorescence over baseline (relative fluorescence units) which was expressed as the percentage (max % remain) of the maximal pH 5.0-induced response.

human TRPV1 [2] = molecular target: T1, human TRPV1; test: Capsaicin Activation Assay (FLIPR intracellular Ca2+, recombinant HEK293 cells); format: cell-based; details: recombinant HEK293 cells expressing hTRPV1; 50 nM capsaicin; read-out: human TRPV1 capsaicin IC50
Protocol: (i) Capsaicin Activation Assay
Dulbecco's modified Eagle medium (DMEM) (with 4.5 mg/mL glucose) and fetal bovine serum were obtained from Hyclone Laboratories, Inc. (Logan, Utah). Dulbecco's phosphate-buffered saline (DPBS) (with 1 mg/mL glucose and 3.6 mg/l Na pyruvate, without phenol red), L-glutamine, hygromycin B, and Lipofectamine® were obtained from Life Technologies (Grand Island, N.Y.). G418 sulfate was obtained from Calbiochem-Novabiochem Corp. (San Diego, Calif.). Capsaicin (8-methyl-N-vanillyl-6-nonenamide) was obtained from Sigma-Aldrich, Co. (St. Louis, Mo.). Fluo-4 AM (N-[4-[6-[(acetyloxy)-methoxy]-2,7-difluoro-3-oxo-3H-xanthen-9-yl]-2-[2-[2-[bis[2-[(acetyloxy)methoxy]-2-oxyethyl]amino]-5-methylphenoxy]ethoxy]phenyl]-N-[2-[(acetyloxy)methoxy]-2-oxyethyl]-glycine, (acetyloxy)methyl ester) was purchased from Molecular Probes (Eugene, Oreg.).
as §1
The functional activity of compounds at the TRPV1 receptor was determined by measurement of intracellular Ca^2+ levels ([Ca^2+]i) using the Fluorescence Imaging Plate Reader (FLIPR)TETRA®. All compounds were tested over a 12-point one-third-log concentration range. Compound stocks, 10 mM, were prepared in DMSO, and diluted serially across a 384-well plate using a Bravo BenchCel workstation (Agilent Technologies, Santa Clara, Calif.). A stock concentration of capsaicin (10 mM) was made in DMSO, and diluted in DPBS to a final concentration of 200 nM (4×). On the day prior to the experiment, the recombinant HEK293 cells expressing human TRPV1 (hTRPV1) were removed from tissue culture flasks and plated in growth medium into black-walled clear-bottom 384-well Biocoat™ poly-D-lysine assay plates (BD Biosciences, Bedford, Mass.) using a Multidrop® dispenser (ThermoScientific, Waltham, Mass.). […] The plated cells were incubated for 90-120 minutes in the dark at room temperature and then test compound was added to each well. Three minutes later, 200 nM capsaicin (4×) solution was added to each well in an amount sufficient to provide a final assay volume of 80 μL and capsaicin concentration of 50 nM. Fluorescence readings were made at 1 to 5 second intervals over the course of the experimental run. The peak increase in relative fluorescence units (minus baseline) was calculated, and expressed as a percentage of the 50 nM capsaicin (control) response.

T1 sequence (Q8NER1 whole entry): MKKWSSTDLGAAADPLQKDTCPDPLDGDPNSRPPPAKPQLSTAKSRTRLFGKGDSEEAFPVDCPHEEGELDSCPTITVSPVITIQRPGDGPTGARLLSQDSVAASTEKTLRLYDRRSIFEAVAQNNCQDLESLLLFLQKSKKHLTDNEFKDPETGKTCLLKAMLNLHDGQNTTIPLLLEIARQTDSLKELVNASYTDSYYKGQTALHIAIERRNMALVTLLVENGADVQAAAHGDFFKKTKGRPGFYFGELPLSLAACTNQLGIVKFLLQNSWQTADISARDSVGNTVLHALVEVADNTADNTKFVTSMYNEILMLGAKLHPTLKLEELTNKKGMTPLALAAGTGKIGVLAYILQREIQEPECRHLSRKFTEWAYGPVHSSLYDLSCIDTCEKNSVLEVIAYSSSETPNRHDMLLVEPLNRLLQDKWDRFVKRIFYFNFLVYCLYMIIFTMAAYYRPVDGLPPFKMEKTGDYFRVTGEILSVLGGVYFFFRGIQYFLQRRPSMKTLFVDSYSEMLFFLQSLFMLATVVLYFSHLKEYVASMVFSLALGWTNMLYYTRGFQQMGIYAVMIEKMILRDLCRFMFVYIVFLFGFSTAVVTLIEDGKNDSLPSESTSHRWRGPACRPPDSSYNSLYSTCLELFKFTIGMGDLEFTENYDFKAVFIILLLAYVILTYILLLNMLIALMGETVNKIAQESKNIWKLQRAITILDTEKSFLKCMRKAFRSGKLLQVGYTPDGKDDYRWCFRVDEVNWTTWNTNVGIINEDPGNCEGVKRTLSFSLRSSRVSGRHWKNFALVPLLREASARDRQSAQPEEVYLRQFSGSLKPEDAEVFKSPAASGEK

Compound	human TRPV1 H+ (max % remain) (human TRPV1 [1]) [%]	IC50 (human TRPV1 [2]) [µM]
O=C(Nc1cccc2c1CC(O)C2)NC1CC(c2ccccc2Cl)Oc2ccccc21 (stereo not shown) [Example 120, 1-[2-(2-chlorophenyl)-3,4-dihydro-2H-chromen-4-yl]-3-(2-hydroxy-2,3-dihydro-1H-inden-4-yl)urea]	51	1.6
O=C(Nc1ccc(F)c2c1C[C@H](O)C2)N[C@@H]1CC(CF)(CF)Oc2c(F)cc(F)cc21 [Example 142, 1-[(4R)-6,8-difluoro-2,2-bis(fluoromethyl)-3,4-dihydro-2H-chromen-4-yl]-3-[(2S)-7-fluoro-2-hydroxy-2,3-dihydro-1H-inden-4-yl]urea]	4	4
COc1ccc2c(c1)OCCC2NC(=O)Nc1cccc2c1CC(O)C2 (stereo not shown) [Example 107, 1-(2-hydroxy-2,3-dihydro-1H-inden-4-yl)-3-(7-methoxy-3,4-dihydro-2H-chromen-4-yl)urea]	55	2.2
O=C(Nc1ccc(F)c2c1C[C@@H](O)C2)N[C@@H]1CC(CF)(CF)Oc2ccc(F)cc21 [Example 161, 1-[(4R)-6-fluoro-2,2-bis(fluoromethyl)-3,4-dihydro-2H-chromen-4-yl]-3-[(2R)-7-fluoro-2-hydroxy-2,3-dihydro-1H-inden-4-yl]urea]	47	3.9
C[C@]1(CF)C[C@@H](NC(=O)Nc2ccc3c(c2)C(O)C3)c2ccccc2O1 (stereo partly drawn) [Example 132, 1-[(2R,4R)-2-(fluoromethyl)-2-methyl-3,4-dihydro-2H-chromen-4-yl]-3-(8-hydroxybicyclo[4.2.0]octa-1,3,5-trien-3-yl)urea]	95	31
C[C@@]1(C(F)F)C[C@@H](NC(=O)Nc2cccc3c2C[C@H](O)C3)c2ccccc2O1 [Example 126, 1-[(2S,4R)-2-(difluoromethyl)-2-methyl-3,4-dihydro-2H-chromen-4-yl]-3-[(2R)-2-hydroxy-2,3-dihydro-1H-inden-4-yl]urea]	88	1.4
CN1CC[C@@H](NC(=O)Nc2ccc(F)c3c2C[C@H](O)C3)c2ccc(C(F)(F)F)cc21 [Example 148, 1-[(2S)-7-fluoro-2-hydroxy-2,3-dihydro-1H-inden-4-yl]-3-[(4R)-1-methyl-7-(trifluoromethyl)-1,2,3,4-tetrahydroquinolin-4-yl]urea]	21	3.1
O=C(Nc1cccc2c1CC(O)C2)NC1c2ccccc2OCC1Cc1ccccc1 (stereo not shown) [Example 111, 1-(3-benzyl-3,4-dihydro-2H-chromen-4-yl)-3-(2-hydroxy-2,3-dihydro-1H-inden-4-yl)urea]	94	2.2
O=C(NCC1CCc2cc(C(F)(F)F)ccc2O1)Nc1cccc2c1C[C@H](O)C2 (stereo partly drawn) [Example 26, 1-[(2R)-2-hydroxy-2,3-dihydro-1H-inden-4-yl]-3-{[6-(trifluoromethyl)-3,4-dihydro-2H-chromen-2-yl]methyl}urea]	66	0.77
O=C(Nc1cccc2c1C[C@H](O)C2)N[C@@H]1CCOc2c(F)cc(F)cc21 [Example 64, 1-[(4R)-6,8-difluoro-3,4-dihydro-2H-chromen-4-yl]-3-[(2R)-2-hydroxy-2,3-dihydro-1H-inden-4-yl]urea]	90	4.8
O=C(Nc1cccc2c1C[C@H](O)C2)N[C@H]1CCOc2cc(OC(F)(F)F)ccc21 [Example 93, 1-[(2R)-2-hydroxy-2,3-dihydro-1H-inden-4-yl]-3-[(4S)-7-(trifluoromethoxy)-3,4-dihydro-2H-chromen-4-yl]urea]	57	41
O=C(Nc1cccc2c1C[C@@H](O)C2)N[C@H]1CC2(CCC2)Oc2ccc(F)cc21 [Example 102, 1-[(4S)-6-fluoro-3,4-dihydrospiro[chromene-2,1′-cyclobutan]-4-yl]-3-[(2S)-2-hydroxy-2,3-dihydro-1H-inden-4-yl]urea]	63	2.8

Stronger by IC50 (human TRPV1 [2]), values ahead:

human TRPV1 H+ (max % remain) (human TRPV1 [1]) [%]	IC50 (human TRPV1 [2]) [µM]	Compound
72	0.43	O=C(Nc1cccc2c1CC(O)C2)NC1CC(c2ccc(F)cc2)Oc2ccccc21 (stereo not shown) [Example 119, 1-[2-(4-fluorophenyl)-3,4-dihydro-2H-chromen-4-yl]-3-(2-hydroxy-2,3-dihydro-1H-inden-4-yl)urea]
86	0.28	C[C@]1(CF)C[C@@H](NC(=O)Nc2cccc3c2C[C@H](O)C3)c2cccc(F)c2O1 [Example 66, 1-[(2R,4R)-8-fluoro-2-(fluoromethyl)-2-methyl-3,4-dihydro-2H-chromen-4-yl]-3-[(2R)-2-hydroxy-2,3-dihydro-1H-inden-4-yl]urea]
3	0.082	CC1(C)C[C@@H](NC(=O)Nc2ccc(F)c3c2C[C@H](O)C3)c2cccc(OC(F)(F)F)c2O1 [Example 154, 1-[(4R)-2,2-dimethyl-8-(trifluoromethoxy)-3,4-dihydro-2H-chromen-4-yl]-3-[(2S)-7-fluoro-2-hydroxy-2,3-dihydro-1H-inden-4-yl]urea]
67	0.061	O=C(Nc1cccc2c1CC(O)C2)NC1CC(c2ccccc2)Oc2ccccc21 (stereo not shown) [Example 118, 1-(2-hydroxy-2,3-dihydro-1H-inden-4-yl)-3-(2-phenyl-3,4-dihydro-2H-chromen-4-yl)urea]
64	0.036	C[C@@]1(C(F)F)C[C@@H](NC(=O)Nc2cccc3c2C[C@H](O)C3)c2ccc(Cl)cc2O1 [Example 20, 1-[(2S,4R)-7-chloro-2-(difluoromethyl)-2-methyl-3,4-dihydro-2H-chromen-4-yl]-3-[(2R)-2-hydroxy-2,3-dihydro-1H-inden-4-yl]urea]
72	0.017	CC1(CF)C[C@@H](NC(=O)Nc2cccc3c2C[C@H](O)C3)c2ccc(Cl)cc2O1 (stereo partly drawn) [Example 67, 1-[(4R)-7-chloro-2-(fluoromethyl)-2-methyl-3,4-dihydro-2H-chromen-4-yl]-3-[(2R)-2-hydroxy-2,3-dihydro-1H-inden-4-yl]urea]
2	0.014	O=C(Nc1cccc2c1C[C@@H](O)C2)N[C@@H]1CC(CF)(CF)Oc2cc(C(F)(F)F)ccc21 [Example 74, 1-[(4R)-2,2-bis(fluoromethyl)-7-(trifluoromethyl)-3,4-dihydro-2H-chromen-4-yl]-3-[(2S)-2-hydroxy-2,3-dihydro-1H-inden-4-yl]urea]
71	0.014	CC1(C)C[C@@H](NC(=O)Nc2cccc3c2C[C@H](O)C3)c2cccc(OC(F)(F)F)c2O1 [Example 19, 1-[(4R)-2,2-dimethyl-8-(trifluoromethoxy)-3,4-dihydro-2H-chromen-4-yl]-3-[(2R)-2-hydroxy-2,3-dihydro-1H-inden-4-yl]urea]
